# Source: the NIST ThermoML archive (doi:10.1016/j.tca.2016.06.023)
# ± gives the expanded uncertainty stated by the source.
# Tests used:
# [1] = xn = mol fraction of the nth substance listed; conditions: 81.5 kPa, Liquid, Vibrating tube method
# [2] = refractive index (Na D-line) (dimensionless); xn = mol fraction of the nth substance listed; conditions: 81.5 kPa, Liquid, Standard Abbe refractometry
Compound,"mass density ([1]; 293.15 K, x1 = 1) [kg/m3]","mass density ([1]; 303.15 K, x1 = 1) [kg/m3]","mass density ([1]; 313.15 K, x1 = 1) [kg/m3]","mass density ([1]; 323.15 K, x1 = 1) [kg/m3]","mass density ([1]; 333.15 K, x1 = 1) [kg/m3]","refractive index ([2]; 293.15 K, x1 = 1)","refractive index ([2]; 303.15 K, x1 = 1)","refractive index ([2]; 313.15 K, x1 = 1)","refractive index ([2]; 323.15 K, x1 = 1)","refractive index ([2]; 333.15 K, x1 = 1)","mass density ([1]; 293.15 K, x2 = 0) [kg/m3]","mass density ([1]; 303.15 K, x2 = 0) [kg/m3]","mass density ([1]; 313.15 K, x2 = 0) [kg/m3]","mass density ([1]; 323.15 K, x2 = 0) [kg/m3]","mass density ([1]; 333.15 K, x2 = 0) [kg/m3]","refractive index ([2]; 293.15 K, x2 = 0)","refractive index ([2]; 303.15 K, x2 = 0)","refractive index ([2]; 313.15 K, x2 = 0)","refractive index ([2]; 323.15 K, x2 = 0)","refractive index ([2]; 333.15 K, x2 = 0)"
Clc1ccccc1 [chlorobenzene] + Brc1ccccc1,1106.49 ± 10,1095.71 ± 10,1084.86 ± 10,1073.96 ± 10,1063.01 ± 10,1.52455 ± 0.01,1.51902 ± 0.01,1.51346 ± 0.01,1.50781 ± 0.01,1.50223 ± 0.01,,,,,,,,,,
O=[N+]([O-])c1ccccc1 [nitrobenzene] + Brc1ccccc1,,,,,,,,,,,1203.05 ± 10,1193.15 ± 10,1183.21 ± 10,1173.27 ± 10,1163.32 ± 10,1.55241 ± 0.01,1.54763 ± 0.01,1.54288 ± 0.01,1.53795 ± 0.01,1.53289 ± 0.01
O=[N+]([O-])c1ccccc1 [nitrobenzene] + Clc1ccccc1,,,,,,,,,,,1203.05 ± 10,1193.15 ± 10,1183.21 ± 10,1173.27 ± 10,1163.32 ± 10,1.55241 ± 0.01,1.54763 ± 0.01,1.54288 ± 0.01,1.53795 ± 0.01,1.53289 ± 0.01
